This is an account of results in US8039430B2 (University of Wollongong, priority 2005, dated 2011).

Data set [1] concerns E. faecium isolate (VanD-type). Conditions: VanD-type E. faecium isolate from the United States, constitutively resistant; cited from earlier work.
In data set [2] the test system is E. faecium (VRE, vanA genes). Particulars: typical for VRE E. faecium in hospitals; cited from earlier work.
The next data set addresses T1, HIV integrase enzyme (Human immunodeficiency virus type 1 group M subtype B, UniProt P04585).
T1 construct: against the HIV integrase enzyme
Description: Cross testing of antibacterial compounds for ability to inhibit the HIV integrase enzyme. Conditions: Example 2 compounds; compared with lead 88. The class given is biochemical. The procedure: The results for the screening of the four target molecules 165-168 against the HIV integrase enzyme yielded some encouraging results which supported the proposed mechanism of binding in the active binding trench of the HIV integrase enzyme. The testing procedure for the four target compounds differed from the original screening protocols employed. The original screening measured inhibition against the 3′ processing function of the enzyme at the fixed concentration of 50 μg/mL, whereas the four target molecules were tested in an assay adapted from a literature procedure,^107 which measures inhibition against the 3′ strand transfer function of the enzyme. This allows a result to be obtained as an inhibition constant (IC50) concentration, which is the standard measurement of inhibition within the literature. Along with the four target molecules, 88 was also re-tested in the 3′ strand transfer assay to determine the IC50 for direct comparison with the literature.
After these compounds and the computer modelling studies had become established, all compounds that were sent for screening in the antibacterial assay were then also cross tested for their ability to inhibit the HIV integrase enzyme.

For another data set, the system named is E.f987. As to the kind of experiment: Antibacterial screening (MIC) of compounds of Example 2, E.f987. Type of data set: cell-based, Enterococcus faecium. Conditions: for Antibacterial activity μg/mL, E.f987: Example 2 compounds, enterococci strain E.f987.
Data set [3] concerns Staphylococcus aureus strain ATCC 6538P. Description: Antibacterial screening (MIC) of compounds of Example 2, S. aureus, Mueller-Hinton broth. Conditions: for MIC: Staphylococcus aureus, ATCC6538P. Type of data set: cell-based. Put shortly: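 Broth dilution against S. aureus ATCC 6538P in cation-supplemented Mueller-Hinton broth at 37 °C, with inoculated medium shaken 30 min at 130 rpm before serial transfer-dilution of compound. Triplicate vancomycin and compound-negative controls on each plate. MIC is the lowest concentration that prevents bacterial growth.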

For the next data set, the system named is E.f243. As to the kind of experiment: Antibacterial screening (MIC) of compounds of Example 2, E.f243. Type of data set: cell-based, Enterococcus faecium.
For another data set, the system named is E.f820. Description: Antibacterial screening (MIC) of compounds of Example 2, E.f820. Type of data set: cell-based, Enterrococci faecium. Conditions: for Antibacterial activity μg/mL, E.f820: Example 2 compounds, fully vancomycin-resistant strain E.f820.
The test system of the next data set is E.f449. Description: Antibacterial screening (MIC) of compounds of Example 2, E.f449. Type of data set: cell-based, Enterococcus faecium.
Data set [4] deals with strains of MRSA which have intermediate resistance to glycopeptides. Conditions: cited from earlier work.
Data set [5] relates to #449 E. faecium van B ST17. Description: Antibacterial assay (MIC), VRE strain #449, Enterococossel Broth, Example 1. The class given is cell-based, Enterococcus faecium. Particulars: Enterococcus faecium, VRE, 24 h, read-out: 449 (minimum inhibitory concentration). Put shortly: (§1)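 Broth microdilution in Enterococossel Broth, triplicate twofold dilutions from 125 to 0.98 ug/ml, inoculated with 1/1000-diluted overnight E. faecium van B culture. Incubated 24 h at 37° C with slow rotation. MIC read as lowest concentration without pellet or black medium; first-row DMSO 2.5%.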

In a further data set the test system is MRSA isolates. Conditions: 43 MRSA isolates from adults with community respiratory infections; cited from earlier work.
The subject of data set [6] is Staphylococcus aureus (ATCC 6538P). Description: Antibacterial assay (MIC), Staphylococcus aureus ATCC 6538P, Luria Broth, Example 1. Type of data set: cell-based. Particulars: Staphylococcus aureus, ATCC6538P, 24 h, read-out: Sa (minimum inhibitory concentration). Put shortly: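 Broth microdilution in Luria Broth, 2-fold series from 125 to 0.98 ug/ml in triplicate, with 1/1000-diluted overnight culture; up to 2.5% DMSO. Incubated 24 hrs at 37° C with slow rotation; MIC read as lowest concentration giving a clear well without bacterial pellet.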

Data set [7] relates to #820 E. faecium van A ST17. Description: Antibacterial assay (MIC), VRE strain #820, Enterococossel Broth, Example 1. Type of data set: cell-based, Enterococcus faecium. Particulars: Enterococcus faecium, VRE, 24 h, read-out: 820 (minimum inhibitory concentration). Put shortly: (§2)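 Broth microdilution MIC vs E. faecium VRE strains grown in Enterococossel broth, inoculum 1/1000 of overnight culture; compounds tested in triplicate at 125–0.98 ug/ml (2-fold), top-well DMSO 2.5%. Plates incubated 24 h at 37 °C; MIC read as clear well, no pellet and no black colouring of medium.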

Data set [8] deals with #243 E. faecium van B ST17. Description: Antibacterial assay (MIC), VRE strain #243, Enterococossel Broth, Example 1. The class given is cell-based, Enterococcus faecium. Particulars: Enterococcus faecium, VRE, 24 h, read-out: 243 (minimum inhibitory concentration). Put shortly:
as §1

The subject of data set [9] is #987 E. faecium van B ST39. Description: Antibacterial assay (MIC), VRE strain #987, Enterococossel Broth, Example 1. The class given is cell-based, Enterococcus faecium. Conditions: Enterococcus faecium, VRE, 24 h, read-out: 987 (minimum inhibitory concentration). Put shortly: as §2
The next data set has as its system S. aureus. Conditions: when penicillin was introduced in mid-1940s; cited from earlier work.

Converted amounts (≈) assume the structure as drawn. Like-named read-outs stand apart in the source and are kept apart here. Some results are limits rather than exact numbers.

As to teicoplanin, the MIC in data set [1] is 4 µg/mL. For the same compound, in data set [2], the “minimum inhibitory concentrations (MICs)” value was above 16 µg/mL.

For the compound `CCCOc1ccc2ccccc2c1-c1c(OCC(=O)N[C@H](CCCN)C(=O)Nc2cccc(C(=O)NO)c2)ccc2ccccc12.Cl` [Compound 163], at HIV integrase enzyme, the “ability to inhibit the HIV integrase enzyme (in words)” value is given as “almost as active as the original lead 88”. In the data set on E.f987, the “Antibacterial activity μg/mL, E.f987” value is above 125 µg/mL. Moreover, the “Antibacterial activity μg/mL, S.a” value in data set [3] (Example 2 compounds (linear cationic peptides), S. aureus, vancomycin-susceptible strain) stood at 15.6 µg/mL. For the same compound, the “Antibacterial activity μg/mL, E.f243” value in the data set on E.f243 (Example 2 compounds, enterococci strain E.f243) is above 125 µg/mL. The “Antibacterial activity μg/mL, E.f820” value in the data set with E.f820 was above 125 µg/mL. For the same compound, the “Antibacterial activity μg/mL, E.f449” value in the data set on E.f449 (Example 2 compounds, enterococci strain E.f449) was above 125 µg/mL.

Turning to `Oc1cc(Cl)ccc1Oc1ccc(Cl)cc1Cl` [triclosan], the “minimal bactericidal concns. (MBCs), increased value” in [4] (MRSA with intermediate resistance to glycopeptides, decreased susceptibility to biocides) is given as 3.12 mg 1-1. Further, in data set [4] (value from which the MBC increased), the “minimal bactericidal concns. (MBCs), starting value” is 0.002 mg 1-1.

As to `CN[C@H](CC(C)C)C(=O)N[C@H]1C(=O)N[C@@H](CC(N)=O)C(=O)N[C@H]2C(=O)N[C@H]3C(=O)N[C@H](C(=O)N[C@H](C(=O)O)c4cc(O)cc(O)c4-c4cc3ccc4O)[C@H](O)c3ccc(c(Cl)c3)Oc3cc2cc(c3O[C@@H]2O[C@H](CO)[C@@H](O)[C@H](O)[C@H]2O[C@H]2C[C@](C)(N)[C@H](O)[C@H](C)O2)Oc2ccc(cc2Cl)[C@H]1O` [Vancomycin, vancomycin, reference compound], the MIC in the data set on E.f987 (Enterococcus faecium, read-out: Antibacterial activity μg/mL, E.f987) was below 0.98 µg/mL; in data set [5], 15.7 to 62.5 µg/mL (≈ 10.8 to 43.1 µM); in data set [3] (18 h, read-out: Antibacterial activity (MIC μg/mL)), 1.25 to 2.5 µg/mL (≈ 0.863 to 1.73 µM); in data set [3] (read-out: Antibacterial activity μg/mL, S.a), 1.95 µg/mL (≈ 1.35 µM); in data set [6], 0.99 to 15.6 µg/mL (≈ 0.683 to 10.8 µM); in data set [7] it was above 62.6 µg/mL. Further, the MIC is 1.95 µg/mL (≈ 1.35 µM) with E.f243 (Enterococcus faecium, read-out: Antibacterial activity μg/mL, E.f243); above 125 µg/mL with E.f820 (read-out: Antibacterial activity μg/mL, E.f820); below 0.98 µg/mL in [8]; 62.5 µg/mL (≈ 43.1 µM) in the data set on E.f449 (Enterococcus faecium, read-out: Antibacterial activity μg/mL, E.f449); below 0.98 µg/mL in [9]. In addition, the “Antibacterial activity μg/mL, E.f987” value in the data set with E.f987 was below 0.98 µg/mL. In addition, the susceptibility rates with MRSA isolates is reported as 100%. The “Antibacterial activity μg/mL, E.f820” value with E.f820 was above 125 µg/mL. In addition, the “minimum inhibitory concentrations (MICs)” value in data set [2] is above 128 µg/mL.

Consider penicillin, for which, in the data set on S. aureus, the “susceptible S. aureus” value was around 94%.

On to `C=CCOc1ccc2ccccc2c1-c1c(OCC(=O)N[C@H](CCCNC(=N)N)C(=O)Nc2cccc(C(=O)NO)c2)ccc2ccccc12.Cl`, for which the melting point (commonly the temperature of the solid-liquid transition) is 158 to 160 °C.
